According to patent US6921821B2, “Antagonists of melanin concentrating hormone receptor” (Abbott Laboratories, priority 2002, dated 2005):
Structures can show the parent of a compound that is named as a salt.

Biological target: T1, murine MCHR (Mus musculus, UniProt Q8JZL2)
T1 construct: expressed in transfected cells; host or cells: HEK293
Assay: Assay for release of intracellular calcium (FLIPR, Fluo-4), inhibition of MCH-induced Ca++ flux
Type: cell-based
Conditions: test compound at a dose of 10 μM, HEK293 cells expressing the murine MCHR, read-out: inhibition of MCH (MCH induced Ca++ flux / fluorescence)
Method: Assay for Release of Intracellular Calcium
Activation of the melanin concentrating hormone receptor (MCHR) by MCH induces the release of Ca^++ from intracellular stores. This intracellular calcium release is measured using a fluorometric imaging plate reader (FLIPR™, Molecular Devices Corp.) in conjunction with the Ca^++-sensitive dye Fluo-4. Release of Ca^++ from intracellular stores causes an increase in fluorescence of the dye that is proportional to Ca^++ concentration. Briefly, the assays are performed as follows. HEK293 cells expressing the murine MCHR are plated overnight at 50,000 cells/well in 96-well plates. The following day, culture medium is removed and replaced with 100 μl/well of D-PBS (+glucose and sodium pyruvate) containing 2.5 μM Fluo-4AM (Molecular Probes), 0.01% Pluronic F-127 and 2.5 mM probenecid. Cells are loaded with the Fluo-4 dye for at least one hour at room temp. After loading, the cells are washed gently to remove extracellular dye and 100 μl of D-PBS (+glucose and sodium pyruvate) is added to each well. Test compounds are prepared at 40 μM in 4% DMSO. The cell plate is placed in the FLIPR™ and 50 μl/well of test compound is delivered. The calcium signal is followed for 3 minutes to assay for potential agonist activity by the test compounds. Then 50 μl/well of 12 nM mouse MCH (in D-PBS containing 0.1% BSA) is added and the ligand-induced calcium signal is followed for an additional 3 minutes. Antagonist activity as determined by the test compounds ability to inhibit MCH induced Ca^++ flux is calculated as % inhibition as described by the following formula: % inhibition=[1−((fTC−fB)÷(fMCH−fB))]×100, where fTC=MCH-induced fluorescence in the presence of test compound; fMCH=MCH-induced fluorescence in the absence of test compound; and fB=Baseline fluorescence.
MCH (3 nM) usually elicits a response of 30,000-40,000 relative fluorescence units (RFU) with a baseline of about 1000 RFU. Fluo-4 fluorescence is measured at 488 nm, with an exposure of 0.40 sec. and F-stop=2.0 and the laser set at 0.40-0.60 W constant light output.

T1 sequence (Q8JZL2 whole entry): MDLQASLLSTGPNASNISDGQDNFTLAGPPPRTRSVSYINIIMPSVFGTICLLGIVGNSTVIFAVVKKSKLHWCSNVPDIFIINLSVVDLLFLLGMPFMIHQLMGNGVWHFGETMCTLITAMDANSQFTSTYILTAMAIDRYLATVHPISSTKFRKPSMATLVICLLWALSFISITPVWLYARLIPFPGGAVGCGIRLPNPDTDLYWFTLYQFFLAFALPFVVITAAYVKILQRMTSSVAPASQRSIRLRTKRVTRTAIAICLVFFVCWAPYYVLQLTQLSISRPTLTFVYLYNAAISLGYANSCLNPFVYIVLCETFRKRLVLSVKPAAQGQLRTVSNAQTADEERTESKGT

Row | SMILES | inhibition at 10 µM [%]
1 | O=c1cc(NC2CCN(Cc3ccc4c(c3)OCO4)CC2)c2cc(Cl)ccc2n1Cc1cc[n+]([O-])cc1 [Compound V-19, 4-(1-Benzo[1,3]dioxol-5-ylmethyl-piperidin-4-ylamino)-6-chloro-1-(1-oxy-pyridin-4-ylmethyl)-1H-quinolin-2-one] | ≥ 50
2 | O=c1cc(NC2CCN(Cc3ccc(Cl)cc3)CC2)c2cc(Cl)ccc2o1 [II-59, 6-Chloro-4-{1-(4-chloro-benzyl)-piperidin-4-ylamino}-chromen-2-one] | ≥ 50
3 | O=c1cc(NC2CCN(Cc3ccc4c(c3)OCO4)CC2)c2cc(Cl)ccc2n1Cc1ccncc1 [Compound V-4, 4-(1-Benzo[1,3]dioxol-5-ylmethylpiperidin-4-ylamino)-6-chloro-1-pyridin-4-ylmethyl-1H-quinolin-2-one] | ≥ 50
4 | CCc1ccc2c(c1)c(NC1CCN(Cc3ccc4ccccc4c3)CC1)cc(=O)n2C [Compound V-20, 6-Ethyl-1-methyl-4-(1-naphthalen-2-ylmethyl-piperidin-4-ylamino)-1H-quinolin-2-one] | ≥ 50
5 | Cn1c(=O)cc(NC2CCN(Cc3ccc4ccccc4c3)CC2)c2cc(O)ccc21 [Compound V-46, 6-Hydroxy-1-methyl-4-(1-naphthalen-2-ylmethyl-piperidin-4-ylamino)-1H-quinolin-2-one] | ≥ 50
6 | C/C(=C\c1ccccc1)CN1CCC(Nc2cc(=O)oc3ccc(Cl)cc23)CC1 [III-18, 6-Chloro-4-[1-(2-methyl-3-phenyl-allyl)-piperidin-4-ylamino]-chromen-2-one] | ≥ 50
7 | COc1ccc2c(c1)c(NC1CCN(Cc3ccc4c(c3)OCO4)CC1)c(C(=O)N(C)C)c(=O)n2C [Compound V-60, 4-(1-Benzo[1,3]dioxol-5-ylmethyl-piperidin-4-ylamino)-6-methoxy-1-methyl-2-oxo-1,2-dihydro-quinoline-3-carboxylic acid dimethylamide] | ≥ 50
8 | COc1ccc(CN2CCC(Nc3c(C#N)c(=O)n(C)c4ccc(Cl)cc34)CC2)cc1F [Compound V-32, 6-Chloro-4-[1-(3-fluoro-4-methoxy-benzyl)-piperidin-4-ylamino]-1-methyl-2-oxo-1,2-dihydro-quinoline-3-carbonitrile] | ≥ 50
9 | N#Cc1c(NC2CCN(Cc3ccc4ccccc4c3)CC2)c2cc(Cl)ccc2[nH]c1=O [Compound V-53, 6-Chloro-4-(1-naphthalen-2-ylmethyl-piperidin-4-ylamino)-2-oxo-1,2-dihydro-quinoline-3-carbonitrile] | ≥ 50
10 | O=C(NCCN1CCCCC1)c1ccc(CN2CCC(Nc3cc(=O)oc4ccc(Cl)cc34)CC2)cc1 [II-67, 4-[4-(6-Chloro-2-oxo-2H-chromen-4-ylamino)-piperidin-1-ylmethyl]-N-(2-piperidin-1-yl-ethyl)-benzamide; Double TFA Salt] | ≥ 50
11 | O=c1cc(NC2CCN(C/C=C/c3ccccc3)CC2)c2cc(Cl)ccc2o1 [III-3, 6-Chloro-4-[1-(3-phenyl-allyl)-piperidin-4-ylamino]-chromen-2-one] | ≥ 50
12 | COc1ccc2oc(=O)cc(NC3CCN(Cc4ccc(C)cc4C)CC3)c2c1 [II-25, 4-[1-(2,4-Dimethyl-benzyl)-piperidin-4-ylamino]-6-methoxy-chromen-2-one trifluoroacetate] | ≥ 50
13 | O=c1cc(NC2CCN(C/C=C/c3ccccc3)CC2)c2ccccc2o1 [III-24, 4-[1-(3-Phenyl-allyl)-piperidin-4-ylamino]-chromen-2-one] | ≥ 50
14 | CC(c1ccc2c(c1)OCO2)N1CCC(Nc2cc(=O)oc3ccc(Cl)cc23)CC1 (stereo not shown) [II-60, 4-[1-(1-Benzo[1,3]dioxol-5-yl-ethyl)-piperidin-4-ylamino]-6-chloro-chromen-2-one] | ≥ 50
15 | O=c1cc(NC2CCN(Cc3ccc4ccoc4c3)CC2)c2cc(Cl)ccc2o1 [II-36, 4-(1-Benzofuran-6-ylmethyl-piperidin-4-ylamino)-6-chloro-chromen-2-one] | ≥ 50
16 | N#Cc1c(NC2CCN(Cc3ccc4occc4c3)CC2)c2cc(Cl)ccc2[nH]c1=O [Compound V-23, 4-(1-Benzofuran-5-ylmethyl-piperidin-4-ylamino)-6-chloro-2-oxo-1,2-dihydro-quinoline-3-carbonitrile] | ≥ 50
17 | CCn1c(=O)cc(NC2CCN(Cc3ccc4ccccc4c3)CC2)c2cc(Cl)ccc21 [Compound V-6, 6-Chloro-1-ethyl-4-(1-naphthalen-2-ylmethyl-piperidin-4-ylamino)-1H-quinolin-2-one] | ≥ 50
18 | COc1ccc2oc(=O)cc(NC3CCN(Cc4ccc(OCCCN(C)C)cc4)CC3)c2c1 [II-91] | ≥ 50
19 | O=c1cc(NC2CCN(Cc3ccc4c(c3)OCO4)CC2)c2cc(C(F)(F)F)ccc2n1CC(F)(F)F [Compound V-58, 4-(1-Benzo[1,3]dioxol-5-ylmethyl-piperidin-4-ylamino)-1-(2,2,2-trifluoro-ethyl)-6-trifluoromethyl-1H-quinoline-2-one] | ≥ 50
20 | CC(=O)c1ccc(CN2CCC(Nc3cc(=O)oc4ccc(Cl)cc34)CC2)cc1 [II-48, 4-[1-(4-Acetyl-benzyl)-piperidin-4-ylamino]-6-chloro-chromen-2-one] | ≥ 50
21 | COc1ccc2oc(=O)cc(NC3CCN(Cc4ccc(C(=O)NCCN5CCCCC5)cc4)CC3)c2c1 [II-69, 4-[4-(6-Methoxy-2-oxo-2H-chromen-4-ylamino)-piperidin-1-ylmethyl]-N-(2-piperidin-1-yl-ethyl)-benzamide; Double TFA Salt] | ≥ 50
22 | O=c1cc(NC2CCN(Cc3ccc4c(c3)OCO4)CC2)c2cc(Cl)ccc2o1 [II-4, 4-(1-Benzo[1,3]dioxol-5ylmethyl-piperidin-4-ylamino)-6-chloro-chromen-2-one] | ≥ 50
23 | COc1ccc2oc(=O)cc(NC3CCN(Cc4ccc(C)cc4)CC3)c2c1 [II-34, 6-Methoxy-4-[1-(4-methyl-benzyl)-piperidin-4-ylamino]-chromen-2-one trifluoroacetate] | ≥ 50
24 | CCc1ccc2c(c1)c(NC1CCN(Cc3ccc4occc4c3)CC1)cc(=O)n2C [Compound V-25, 4-(1-Benzofuran-5-ylmethyl-piperidin-4-ylamino)-6-ethyl-1-methyl-1H-quinolin-2-one] | ≥ 50
25 | COc1ccc2oc(=O)cc(NC3CCN(Cc4cccc5ccccc45)CC3)c2c1 [II-66, 6-Methoxy-4-(1-naphthalen-1-ylmethyl-piperidin-4-ylamino)-chromen-2-one trifluoroacetate] | ≥ 50
26 | CN(C)C(=O)c1c(NC2CCN(Cc3ccc4occc4c3)CC2)c2cc(Cl)ccc2n(C)c1=O [Compound V-40, 4-(1-Benzofuran-5-ylmethyl-piperidin-4-ylamino)-6-chloro-1-methyl-2-oxo-1,2-dihydro-quinoline-3-carboxylic acid dimethylamide] | ≥ 50
27 | Cc1ccc2c(c1)c(NC1CCN(Cc3ccc4ccccc4c3)CC1)cc(=O)n2C [Compound V-22, 1,6-Dimethyl-4-(1-naphthalen-2-ylmethyl-piperidin-4-ylamino)-1H-quinolin-2-one] | ≥ 50
28 | COc1ccc2oc(=O)cc(N[C@H]3CCN(Cc4ccc5c(c4)OCO5)C[C@H]3C)c2c1 (stereo in doubt) [II-53, 4-(1-Benzo[1,3]dioxol-5-ylmethyl-3-methyl-piperidin-4-ylamino)-6-methoxy-chromen-2-one] | ≥ 50
